The term Km denotes the substrate concentration at which the rate is half of its maximum.

The test deals with T1, phytase from A. terreus.
T1 construct: gene phyA; native, secreted; purified from solid-state culture on wheat bran (acetone, Sephadex G100, Sepharose 4B); 85 kDa subunit by SDS-PAGE
The test can be described thus: released inorganic phosphate, ammonium molybdate colorimetry at […] nm. It is filed as biochemical, Aspergillus terreus. The following applies: standard assay: potassium phosphate buffer pH 7.4, 40 °C, 15 min, table title misprinted as A. flavus GST.

Structures are written as SMILES.

`O=P(O)(O)OC[C@H]1OC(O)(COP(=O)(O)O)[C@@H](O)[C@@H]1O` (stereo partly drawn) [Fructose 1,6-diphosphate]: the Km is 280 µM.

Regarding `O=P(O)(O)O[C@H]1[C@H](OP(=O)(O)O)[C@@H](OP(=O)(O)O)[C@H](OP(=O)(O)O)[C@@H](OP(=O)(O)O)[C@H]1OP(=O)(O)O` [Phytic acid], the Km turned out to be 25 µM.

For the compound `Nc1ncnc2c1ncn2[C@@H]1O[C@H](COP(=O)(O)OP(=O)(O)OP(=O)(O)O)[C@@H](O)[C@H]1O` [ATP], the Km stood at 190 µM.

The record behind these values is paper PMC12239475, “Bioprocessing and characterization of thermostable phytase from Aspergillus terreus, an endophyte of Catharanthus roseus, with a potential activity to hydrolyze phytic acid in wheat bran” (BMC Biotechnology, 2025).
